According to article PMC11822212, “High-throughput screening identifies Aurora kinase B as a critical therapeutic target for Merkel cell carcinoma” (Nature Communications, 2025):
Structures can show the parent of a compound that is named as a salt.

Key:
HACAT cells = assay: qHTS cell viability (CellTiter-Glo, 72 h; primary screen), control cell line; format: cell-based, human
MCC26 cells (VN-MCC) = assay: qHTS cell viability (CellTiter-Glo, 72 h; primary and follow-up small molecule screen); format: cell-based, human
[1] = system: VP-MCC cell lines (WAGA, MKL-1, MKL-2); assay: qHTS cell viability, VP-MCC cell lines as a group (mean AUC, VP.MCC.avg); format: cell-based, human; conditions: for VP-MCC_Avg_AUC: mean AUC of VP-MCC cell lines
WAGA cells (VP-MCC) = assay: qHTS cell viability (CellTiter-Glo, 72 h; primary and follow-up small molecule screen); format: cell-based, human
[2] = system: control cell lines (HACAT, HEK293T, CRL-7250, NIH-3T3); assay: qHTS cell viability, control cell lines as a group (mean AUC, Control.avg); format: cell-based; conditions: mean AUC of control cell lines
MCC13 cells (VN-MCC) = assay: qHTS cell viability (CellTiter-Glo, 72 h; primary and follow-up small molecule screen); format: cell-based, human
[3] = system: six MCC cell lines and four control cell lines; assay: qHTS cell viability, all 10 cell lines screened; format: cell-based
MKL-1 cells (VP-MCC) = assay: qHTS cell viability (CellTiter-Glo, 72 h; primary and follow-up small molecule screen); format: cell-based, human
CRL-7250 cells = assay: qHTS cell viability (CellTiter-Glo, 72 h; primary screen), control cell line; format: cell-based
HEK293T cells = assay: as above; format: cell-based, human
NIH-3T3 cells = assay: as above; format: cell-based, mouse
UISO cells (VN-MCC) = assay: qHTS cell viability (CellTiter-Glo, 72 h; primary and follow-up small molecule screen); format: cell-based, human
MKL-2 cells (VP-MCC) = assay: as above; format: cell-based, human
[4] = system: MCC cell lines (WAGA, MKL-1, MKL-2, MCC13, MCC26, UISO); assay: qHTS cell viability, all six MCC cell lines as a group (mean AUC, MCC.avg); format: cell-based, human
[5] = system: VN-MCC cell lines (MCC13, MCC26, UISO); assay: qHTS cell viability, VN-MCC cell lines as a group (mean AUC, VN.MCC.avg); format: cell-based, human; conditions: for VN-MCC_Avg_AUC: mean AUC of VN-MCC cell lines
[6] = NPC library, 8-point DRC, control cell line
[7] = NPC library, 8-point DRC, area under dose-response curve
[8] = NPC library, mean AUC of six MCC cell lines
[9] = MIPE library, 11-point DRC, control cell line, sheet S2D
[10] = MIPE library, 11-point DRC, control cell line, sheet S2E
[11] = NPC library, qHTS dose-response AUC, HACAT control
[12] = MIPE library, 11-point DRC, sheet S2D
[13] = MIPE library, 11-point DRC, sheet S2E
[14] = NPC library, therapeutic window: Control avg AUC minus VP-MCC avg AUC
[15] = NPC library, qHTS dose-response AUC, WAGA
[16] = NPC library, therapeutic window: Control avg AUC minus MCC avg AUC
[17] = NPC library, qHTS dose-response AUC, MKL1
[18] = NPC library, qHTS dose-response AUC, CRL7250 control
[19] = NPC library, qHTS dose-response AUC, NIH3T3 control
[20] = NPC library, qHTS dose-response AUC, UISO
[21] = NPC library, qHTS dose-response AUC, MKL2
[22] = NPC library, therapeutic window: Control avg AUC minus VN-MCC avg AUC

Compound: COc1ccc(CCN(C)CCCC(C#N)(c2cc(OC)c(OC)c(OC)c2)C(C)C)cc1OC (stereo not drawn) [Gallopamil hydrochloride]
- HACAT_AUC (HACAT cells; [6]): 488.048
- MCC26_AUC (MCC26 cells (VN-MCC); [7]): 402.644
- Control-VP-MCC ([1]; NPC library, Control AUC minus VP-MCC AUC (therapeutic window)): 35.3303
- VP-MCC_Avg_AUC ([1]; NPC library): 443.879
- WAGA_AUC (WAGA cells (VP-MCC); [7]): 444.909
- Control_Avg_AUC ([2]; NPC library): 479.21
- MCC13_AUC (MCC13 cells (VN-MCC); [7]): 438.844
- Control-MCC ([3]; NPC library, Control AUC minus MCC AUC (therapeutic window)): 45.0671
- MKL1_AUC (MKL-1 cells (VP-MCC); [7]): 429.324
- CRL7250_AUC (CRL-7250 cells; [6]): 487.096
- HEK293T_AUC (HEK293T cells; [6]): 464.897
- NIH3T3_AUC (NIH-3T3 cells; [6]): 476.798
- UISO_AUC (UISO cells (VN-MCC); [7]): 431.729
- MKL2_AUC (MKL-2 cells (VP-MCC); [7]): 457.405
- MCC_Avg_AUC [4, 8]: 434.143
- Control-VN-MCC ([5]; NPC library, Control AUC minus VN-MCC AUC (therapeutic window)): 54.804
- VN-MCC_Avg_AUC ([5]; NPC library): 424.406

Compound: CC[C@@]1(O)C(=O)OCc2c1cc1n(c2=O)Cc2cc3c(CN(C)C)c(O)ccc3nc2-1 [Topotecan HCl]
- HACAT_AUC (HACAT cells; [9]): 331.992
- HACAT_AUC (HACAT cells; [10]): 331.992
- HACAT_AUC (HACAT cells; [11]): 242.195
- MCC26_AUC (MCC26 cells (VN-MCC); [12]): 328.226
- MCC26_AUC (MCC26 cells (VN-MCC); [13]): 328.226
- MCC26_AUC (MCC26 cells (VN-MCC); NPC library; qHTS dose-response AUC, MCC26): 267.734
- Area under the dose-response curve (AUC) MCC26 Replicate 1 (MCC26 cells (VN-MCC); follow-up screen; MCC26; replicate 1): 273.0
- Area under the dose-response curve (AUC) MCC26 Replicate 2 (MCC26 cells (VN-MCC); follow-up screen; MCC26; replicate 2): 257.6
- Area under the dose-response curve (AUC) MCC26 Replicate 3 (MCC26 cells (VN-MCC); follow-up screen; MCC26; replicate 3): 280.5
- Control-VP-MCC ([1]; MIPE library, Control AUC minus VP-MCC AUC (therapeutic window), sheet S2D): 112.898
- Control-VP-MCC ([1]; MIPE library, Control AUC minus VP-MCC AUC (therapeutic window), sheet S2E): 112.898
- VP-MCC_Avg_AUC ([1]; MIPE library, sheet S2D): 232.226
- VP-MCC_Avg_AUC ([1]; MIPE library, sheet S2E): 232.226
- VP-MCC_Avg_AUC ([1]; NPC library): 166.29
- Control-VP-MCC [1, 14]: 134.37
- WAGA_AUC (WAGA cells (VP-MCC); [12]): 175.987
- WAGA_AUC (WAGA cells (VP-MCC); [13]): 175.987
- WAGA_AUC (WAGA cells (VP-MCC); [15]): 138.765
- Area under the dose-response curve (AUC) WAGA Replicate 1 (WAGA cells (VP-MCC); follow-up screen, WAGA, replicate 1): 206.9
- Area under the dose-response curve (AUC) WAGA Replicate 2 (WAGA cells (VP-MCC); follow-up screen, WAGA, replicate 2): 188.0
- Area under the dose-response curve (AUC) WAGA Replicate 3 (WAGA cells (VP-MCC); follow-up screen, WAGA, replicate 3): 185.4
- Control_Avg_AUC ([2]; MIPE library, sheet S2D): 345.124
- Control_Avg_AUC ([2]; MIPE library, sheet S2E): 345.124
- Control_Avg_AUC ([2]; NPC library): 300.661
- MCC13_AUC (MCC13 cells (VN-MCC); [12]): 336.51
- MCC13_AUC (MCC13 cells (VN-MCC); [13]): 336.51
- Control-MCC ([3]; MIPE library, Control AUC minus MCC AUC (therapeutic window), sheet S2D): 77.6607
- Control-MCC ([3]; MIPE library, Control AUC minus MCC AUC (therapeutic window), sheet S2E): 77.6607
- Control-MCC [3, 16]: 81.3959
- MKL1_AUC (MKL-1 cells (VP-MCC); [12]): 269.988
- MKL1_AUC (MKL-1 cells (VP-MCC); [13]): 269.988
- MKL1_AUC (MKL-1 cells (VP-MCC); [17]): 185.429
- Area under the dose-response curve (AUC) MKL-1 Replicate 1 (MKL-1 cells (VP-MCC); follow-up screen, MKL-1, replicate 1): 222.0
- Area under the dose-response curve (AUC) MKL-1 Replicate 2 (MKL-1 cells (VP-MCC); follow-up screen, MKL-1, replicate 2): 224.3
- Area under the dose-response curve (AUC) MKL-1 Replicate 3 (MKL-1 cells (VP-MCC); follow-up screen, MKL-1, replicate 3): 226.9
- CRL7250_AUC (CRL-7250 cells; [9]): 391.937
- CRL7250_AUC (CRL-7250 cells; [10]): 391.937
- CRL7250_AUC (CRL-7250 cells; [18]): 360.108
- HEK293T_AUC (HEK293T cells; [9]): 287.732
- HEK293T_AUC (HEK293T cells; [10]): 287.732
- HEK293T_AUC (HEK293T cells; NPC library; qHTS dose-response AUC, HEK293T control): 225.562
- NIH3T3_AUC (NIH-3T3 cells; [9]): 368.835
- NIH3T3_AUC (NIH-3T3 cells; [10]): 368.835
- NIH3T3_AUC (NIH-3T3 cells; [19]): 374.778
- UISO_AUC (UISO cells (VN-MCC); [12]): 243.367
- UISO_AUC (UISO cells (VN-MCC); [13]): 243.367
- UISO_AUC (UISO cells (VN-MCC); [20]): 244.938
- Area under the dose-response curve (AUC) UISO Replicate 1 (UISO cells (VN-MCC); follow-up screen, UISO, replicate 1): 203.8
- Area under the dose-response curve (AUC) UISO Replicate 2 (UISO cells (VN-MCC); follow-up screen, UISO, replicate 2): 226.9
- Area under the dose-response curve (AUC) UISO Replicate 3 (UISO cells (VN-MCC); follow-up screen, UISO, replicate 3): 223.1
- MKL2_AUC (MKL-2 cells (VP-MCC); [12]): 250.703
- MKL2_AUC (MKL-2 cells (VP-MCC); [13]): 250.703
- MKL2_AUC (MKL-2 cells (VP-MCC); [21]): 174.677
- Area under the dose-response curve (AUC) MKL-2 Replicate 1 (MKL-2 cells (VP-MCC); follow-up screen, MKL-2, replicate 1): 184.1
- Area under the dose-response curve (AUC) MKL-2 Replicate 2 (MKL-2 cells (VP-MCC); follow-up screen, MKL-2, replicate 2): 181.9
- Area under the dose-response curve (AUC) MKL-2 Replicate 3 (MKL-2 cells (VP-MCC); follow-up screen, MKL-2, replicate 3): 262.9
- MCC_Avg_AUC ([4]; MIPE library, mean AUC of six MCC cell lines, sheet S2D): 267.463
- MCC_Avg_AUC ([4]; MIPE library, mean AUC of six MCC cell lines, sheet S2E): 267.463
- MCC_Avg_AUC [4, 8]: 219.265
- Control-VN-MCC ([5]; MIPE library, Control AUC minus VN-MCC AUC (therapeutic window), sheet S2D): 42.4232
- Control-VN-MCC ([5]; MIPE library, Control AUC minus VN-MCC AUC (therapeutic window), sheet S2E): 42.4232
- VN-MCC_Avg_AUC ([5]; MIPE library, sheet S2D): 302.701
- VN-MCC_Avg_AUC ([5]; MIPE library, sheet S2E): 302.701
- VN-MCC_Avg_AUC ([5]; NPC library): 272.239
- Control-VN-MCC [5, 22]: 28.4215

Compound: [H]/N=C(\N/C(=N/[H])NCCCCCCNC(=N)NC(=N)Nc1ccc(Cl)cc1)Nc1ccc(Cl)cc1 [Chlorhexidine]
- HACAT_AUC (HACAT cells; [11]): 458.563
- MCC26_AUC (MCC26 cells (VN-MCC); NPC library, qHTS dose-response AUC, MCC26): 406.333
- Control-VP-MCC ([1]; Control AUC minus VP-MCC AUC): 68.1526
- VP-MCC_Avg_AUC ([1]; NPC library): 374.608
- Control-VP-MCC [1, 14]: 68.1526
- WAGA_AUC (WAGA cells (VP-MCC); [15]): 400.622
- Control_Avg_AUC ([2]; NPC library): 442.76
- MCC13_AUC (MCC13 cells (VN-MCC); NPC library, qHTS dose-response AUC, MCC13): 433.192
- Control-MCC [3, 16]: 52.5131
- MKL1_AUC (MKL-1 cells (VP-MCC); [17]): 377.448
- CRL7250_AUC (CRL-7250 cells; [18]): 454.576
- HEK293T_AUC (HEK293T cells; NPC library, qHTS dose-response AUC, HEK293T control): 398.25
- NIH3T3_AUC (NIH-3T3 cells; [19]): 459.651
- UISO_AUC (UISO cells (VN-MCC); [20]): 378.135
- MKL2_AUC (MKL-2 cells (VP-MCC); [21]): 345.753
- MCC_Avg_AUC ([4]; NPC library, mean AUC of all 6 MCC cell lines): 390.247
- MCC_Avg_AUC [4, 8]: 390.247
- Control-VN-MCC ([5]; Control AUC minus VN-MCC AUC): 36.8736
- VN-MCC_Avg_AUC ([5]; NPC library): 405.887
- Control-VN-MCC [5, 22]: 36.8736
